# Assay results reported in US8362072B2, “BRCA1-based breast or ovarian cancer treatment agents and methods of use” (University of Kansas, priority 2007, dated 2013).
# Columns and labels:
# BRCA1 RNA = BRCA1 RNA expression in MCF7 cells by qRT-PCR (TaqMan, 18S normalised); assay type: cell-based, human; conditions: 48 hours, 3.65-32.5 μM, compared to DMSO and genistein
# Experimental: Compounds 29 and 30 were studied for BRCA1 and 18S (e.g., housekeeping gene for normalization) RNA expression. Briefly, MCF7 cells (2×10^6) in 2 ml MEM were plated in a 6 well tissue culture plate and were either left nonstimulated or treated with DMSO (vehicle control), 10 μM Genistein, or 3 different concentrations of indicated test compound—3.65 μM, 10.8 μM, 32.5 μM. Following incubation at 37° C. for 48 hours, the media was removed and RNA was extracted per manufacturer's protocol using the RNeasy Plus RNA extraction kit made by Qiagen. Complementary DNA (cDNA) was generated per manufacturer's protocol from 1000 ng extracted RNA in a 60 μl volume using the High Capacity cDNA kit made by Applied Biosystems. Gene expression of BRCA1 and 18S was detected with the TaqMan Gene Expression assay kit made by Applied Biosystems. […] The […] reaction was run on either the ABI real time system 7500 or 7000 (see, Analysis of Relative Gene Expression Data Using Real-Time Quantitative PCR and the 2^−ΔΔCT Method. Kenneth J. Livak^a and Thomas D. Schmittgen^b, 1. ^a Applied Biosystems, Foster City, Calif., 94404 ^b Department of Pharmaceutical Sciences, College of Pharmacy, Washington State University, Pullman, Wash., 99164-6534. Methods, Volume 25, Issue 4, December 2001, Pages 402-408).
# BRCA1 protein = BRCA1 protein expression in MCF7 cells by Western blot; assay type: cell-based, human; conditions: 48 hours, compared to DMSO
# Experimental: Compounds 29 and 30 were studied for BRCA1 and actin (e.g., housekeeping gene for normalization) protein expression. Briefly, MCF7 cells (2×10^6) in 2 ml MEM were plated in a 6 well tissue culture plate and were either left nonstimulated or treated with DMSO (vehicle control), […] Genistein, or 3 different concentrations of indicated test compound—3.65 μM, […], 32.5 μM. Following incubation at 37° C. for 48 hours, the media was removed and the cells were washed 1× with 500 μl of ice cold PBS. Another 500 μl of ice cold PBS was then added and the cells were scraped off the well and transferred to a microcentrifuge tube. To ensure all cells were removed from the well, an additional […] of ice cold PBS was added to the well and any remaining cells were combined with the initial cell harvest into the microcentrifuge tube. The cells were then pelleted by centrifugation for 5 min at 3000 rpm, 4° C. The supernate was removed and the pellet was then lysed in 150 μl of ice cold RIPA buffer+1× protease inhibitors, on ice for 30 minutes, vortexing occasionally. The cellular debris was then removed by centrifugation for 20 minutes at 11,000 rpm, 4° C. The remaining supernate, containing the extracted proteins, was then transferred to a microcentrifuge tube and quantified using the Bio-Rad DC assay. 100 μg of protein+1×SDS-PAGE sample buffer was loaded onto an 8% Tris glycine gel. The proteins were separated in a tris glycine running buffer at 125 volts for 90 minutes. The proteins were then transferred out of the gel onto PVDF in an overnight transfer with 20% methanol at 35 volts, 4° C. The PVDF membrane was then blocked with 5% milk/PBST (0.1%) for 1 hour at room temperature (RT). BRCA1 protein was detected using anti-BRCA1 (Ab-1, EMD Biosciences) at a 1:250 dilution in 3% milk/PBST, overnight at 4° C. […] To monitor equal protein loading, actin was detected using anti-actin at a 1:200,000 dilution in 5% milk/PBST for 1 hr at RT. […] Chemiluminescence was detected using the SuperSignal West Femto kit made by Pierce Biotechnology and the UVP imaging center. […]
# human BRCA1 promoter = assay: BRCA1-luciferase reporter assay (Steady-Glo) in stably transfected MCF7 cells; assay type: cell-based; conditions: Homo sapiens, MCF7-BRCA1-luciferase cells, dilution series; for EC50: MCF7, 48 h; for EC90: 48 hours
# Experimental: Hygromycin selected MCF7 cells were seeded in 384-well tissue culture plates. The first two columns of each plate were empty so as to include established positive and negative controls. Each of the remaining 352 wells contained a compound to be screened. MCF7 cells were incubated with the compounds for 48 hours. Luciferase activity was measured using the Steady Glo Luciferase Assay System (Promega). Briefly, 5×10^6 MCF7 cells were transfected with […] of purified pGL4.14 containing the human BRCA1 promoter (pGL4.14-hBRCA) with Effectene as per manufacturers protocol (Qiagen). Stable transfectants were selected with […] Hygromicin B. 1×10^5 or 2×10^5 stable transfectants were tested for luciferase activity with the Steady-Glo Luciferase Assay System (Promega).
# Hygromycin selected MCF-7 cells (e.g., MCF7 clone pGL4.14-hBRCA1.3) stably transfected with the human BRCA1-luciferase reporter construct (e.g., pGL4.14-hBRCA1.3) were seeded in 384-well white tissue culture plates (Becton Dickenson, San Diego, Calif.) at 1×10^4 cells/well. These cells were then stimulated with indicated concentrations of genistein (Sigma-Aldrich, St. Louis, Mo.) for 0, 6, 9, 24 and 48 hours. Luciferase activity was measured using the Steady Glo Luciferase Assay System (Promega). The data shown in FIG. 3A is representative of 3 individual experiments.
# Two different chemical libraries were screened for the ability to enhance BRCA1 gene expression. To examine the effects of each compound on BRCA1 expression, the human BRCA1 promoter was cloned and inserted upstream of the firefly luciferase gene in the plasmid pGL4.14 (BRCA1-Luc) (Promega), as described above. The ER positive human breast cancer cell line, MCF7, was transfected and stable transfectants were selected with hygromycin.
# Briefly, compounds were plated in a 384 well plate in a total volume of 20 μl. A ten point dilution series was used at concentrations—100 µM, 10 μM, 1 μM, 100 nM, 10 nM, 1 nM, 0.1 nM, 0.01 nM, 0.0001 nM, 0 (DMSO vehicle only). A second dilution series of 100 μM, 32.5 μM, […], 3.6 μM, 1.2 μM, 400 nM, 132.2 nM, 45 nM, 14.8 nM, 5 nM, and 1.65 nM was also used. MCF7-BRCA1-luciferase cells were added to the compounds at a concentration of 1×10^4 cells/well in a volume of 25 μl. The 384 well plates, containing the compounds+cells, were then incubated at 37° C. for 48 hours. After 48 hours, luciferase activity was measured with the Steady-Glo® Luciferase Assay System (Promega, Madison, Wis.).
EC50 (human BRCA1 promoter) [µM],EC90 (human BRCA1 promoter) [µM],SMILES,BRCA1 RNA expression (BRCA1 RNA),BRCA1 protein expression (BRCA1 protein)
8.49,91.8,Cc1ccc(OCC(=O)O/N=C(\N)c2ccccn2)c(C)c1 [Cmpd 29],increase BRCA1 RNA expression,increase endogenous BRCA1
4.13,55.4,CCc1ccc(OCC(=O)O/N=C(\N)c2ccncc2)c(C)c1 [Cmpd 30],increase BRCA1 RNA expression,increase endogenous BRCA1
